{"source": "patent US8334299B2", "about": "“β-carboline for the treatment of neurodegenerative diseases” (Ellneuroxx, Ltd., priority 2007, dated 2012)", "key": {"[1]": {"system": "brain-derived neurotrophic factor (BDNF)", "experiment": "PCR superarray of RNA from the striata of MPP+ rats: BDNF", "assay_type": "in vivo, rat", "excerpt": "(§1) To investigate Parkinson's disease acute in vivo models are used for years although chronic models would be a better model for the disease. Another disadvantage of the acute models is that ca. 40% of the animals die from the application of the neurotoxin. Therefore, we have chosen a chronic model in which comparably very low doses of neurotoxin 1-methyl-4-phenylpyridinium (MPP^+) were infused for 28 days into the left lateral ventricle of the rat brain. The substance was continuously applied through osmotic minipumps. Thereby, casualties were completely avoided. After four weeks, either solvent or equimolar amounts of the sample substance, namely neuroprotective betacarboline, resp. 9-alkyl-betacarboline was infused for two weeks via the same catheter. In a preliminary study for dose-finding the MPP^+ dose which leads to a reduction by 40% of the dopamine concentration in the striatum was determined. The dopamine concentration in the striatum is a characteristic marker for Parkinson's disease in which a degeneration of dopaminergic neurons occurs.\n(§2) An explanation for the effect of the betacarboline was found in the tests of the RNA from the striata of these rats through the PCR superarray method. Accordingly, the betacarboline activates the generation of neurotrophins, thus proteins produced naturally in the body, which are responsible for the growth and differentiation of neurons. […]"}, "[2]": {"system": "midbrain cells in culture", "experiment": "Dead (necrotic) cells by propidium iodide staining of cell nuclei", "assay_type": "cell-based, mice", "details": "48 hours, 50 μM; control about 20%", "protocol": "FIG. 4b Percentage of dead (necrotic) cells after incubation with 50 μM 9-methyl-β-carboline for 48 hours 10 DIV-12 DIV.\n(§3) Dying cells release the enzyme lactate dehydrogenase (LDH) into the medium. Since cells always die in culture always a small LDH concentration can be detected in the medium as an indirect measure for the vitality of the culture. Compared to control conditions the LDH concentration decreased after incubation with 9-methyl-β-carboline in a dose-dependent manner with a concentration up to 50 μM (FIG. 4a). The number of dead cells can be quantified by staining the cell nuclei with propidium iodide."}, "dopaminergic neurons [3]": {"system": "dopaminergic neurons", "experiment": "Primary midbrain culture, tyrosin hydroxylase staining and counting of dopaminergic neurons", "assay_type": "cell-based, mice", "protocol": "The experiments were carried out with the human neuroblastoma cell line (SH-SY5Y-cells) and with a cell culture of primary nerve cells from the mice embryo midbrain. […] Moreover, the mentioned compounds induce in the primary culture from the mice embryo midbrain the generation of new, differentiated and functional dopaminergic neurons.\nTo this aim midbrain cultures were prepared and kept for 10-12 days (DIV=Days in vitro) in an appropriate medium to accustom to in vitro conditions. Then 9-methyl-β-carboline was added in increasing concentrations and it was waited for 48 hours. Dopaminergic neurons were identified by staining with tyrosin hydroxylase. This enzyme occurs only in dopaminergic midbrain neurons. The number of dopaminergic neurons can be counted reliably with this method. In addition, hints can be obtained whether the dopaminergic neurons are mature or if they are precursor cells. The mature cells have characteristic extensions which also contain tyrosin hydroxylase."}, "dopaminergic neurons [4]": {"system": "dopaminergic neurons", "experiment": "Dopamine concentration in midbrain culture", "assay_type": "cell-based, mice", "details": "50 μM, 48 hours, 10 DIV-12 DIV", "protocol": "FIG. 2a Dopamine concentration (dopamine content) after incubation with 50 μM 9-methyl-β-carboline for 48 hours from 10 DIV-12 DIV.\nTo obtain further hints that the number of dopaminergic neurons really has increased, the dopamine concentration was measured. […] Another characteristic and specificity of dopaminergic neurons is the transport of dopamine into the neurons. Dopamine cannot permeate the outer membrane of neurons because of its hydrophilic character. It must be actively and energy-dependently transported through the DAT mechanism."}, "[5]": {"system": "glial cell line-derived neurotrophic factor (GDNF)", "experiment": "PCR superarray of RNA from the striata of MPP+ rats: GDNF", "assay_type": "in vivo, rat", "excerpt": "as §1, §2"}, "[6]": {"system": "midbrain cells in culture", "experiment": "LDH release of midbrain cells in culture", "assay_type": "cell-based, mice", "details": "48 hours; dose-dependent up to 50 μM", "protocol": "FIG. 4a LDH release after 48 hours of incubation with 50 μM 9-methyl-β-carboline for 48 hours 10 DIV-12 DIV.\nas §3"}, "[7]": {"system": "Sonic Hedgehog, Wnt 1, Wnt 5a, engrailed 1, Nurr 1, Pitx 3, Aldh1a1, DAT, tyrosin hydroxylase", "experiment": "Real-time-RT-PCR of neurotrophic transcription factors and dopamine markers in midbrain cultures", "assay_type": "cell-based, mice", "details": "50 μM, 48 hours and 48 hours after removal", "protocol": "FIG. 7 Evidence of gene expression of neurotrophic transcription factors and dopamine markers with real-time-RT-PCR after incubation with 50 μM 9-methyl-β-carboline for 48 hours 10 DIV-12 DIV.\nFor this purpose, real-time-RT-PCR experiments were carried out. In this quantitative method the transcription of selected genes is measured. We selected genes which are enhanced under proliferation and differentiation conditions and such that are of importance for the formation, stability and degradation of dopaminergic neurons. The analyses were conducted in midbrain cultures after exposition to 50 μM 9-methyl-β-carboline for 48 hours and 48 hours after removal of 9-methyl-β-carboline. Control cultures were kept simultaneously under the same conditions. […] Moreover, factors were increased which are activated during the formation of dopaminergic precursor cells (progenitor cells) (Aldh1a1), the dopamine transporter (DAT) and tyrosin hydroxylase."}, "caspase-3": {"system": "caspase-3", "experiment": "Activity of the apoptosis enzyme caspase-3 in midbrain culture", "assay_type": "cell-based, mice", "details": "50 μM", "protocol": "FIG. 4d Activity of the apoptosis enzyme caspase-3 during and after incubation with 50 μM 9-methyl-β-carboline for 48 hours 10 DIV-12 DIV.\nIn 48 hours about 20% of the cells in culture died. In cultures with a 9-Alkyl-β-carboline only about 10% of the cells died under the same conditions (FIG. 4b). Thus, the findings are in line with the LDH findings. ATP provides the cell with energy. […] The enzyme caspase-3 is an indicator for apoptosis. After 24 hours, the enzyme activity was reduced which hints at a reduction of apoptotic processes, after 48 hours, however, it was increased (FIG. 4d). The last finding hints at a switch of culture cells from reduced necrosis to apoptosis, thus a more precise regulation of cell death."}}}
{"smiles": "Cn1c2ccccc2c2ccncc21", "note": "[9-methyl-β-carboline]", "values": [{"measurement": "increase of BDNF compared to rats infused solvent only for six weeks", "setting": "[1]; left striatum", "value": 4.9, "unit": "times"}, {"measurement": "increase of BDNF compared to rats infused solvent only for six weeks", "setting": "[1]; right striatum", "value": 8.5, "unit": "times"}, {"measurement": "cells in culture that died", "setting": "[2]", "value": "about 10%"}, {"measurement": "increase in dopaminergic neurons after inactivation of the dopamine transporter DAT", "setting": "dopaminergic neurons [3]; 50 μM 9-Me-BC with DAT inhibitor GBR12909, 48 hours", "value": "does not occur"}, {"measurement": "cellular extensions and branching of dopaminergic neurons", "setting": "dopaminergic neurons [3]; 50 μM, 48 hours, vs control without compound", "value": "significantly more cellular extensions"}, {"measurement": "number of dopaminergic neurons", "setting": "dopaminergic neurons [3]; 10-200 μM, 48 hours, 10 DIV-12 DIV, increase up to ca. 100 μM", "value": "increased dose-dependently"}, {"measurement": "dopamine concentration (dopamine content)", "setting": "dopaminergic neurons [4]", "value": "slightly increased without reaching significance level"}, {"measurement": "concentration of GDNF", "setting": "[5]; left striatum", "value": "did not increase"}, {"measurement": "increase of GDNF by factor", "setting": "[5]; right striatum", "value": 12}, {"measurement": "LDH concentration in the medium compared to control", "setting": "[6]", "value": "decreased"}, {"measurement": "transcription of Aldh1a1, dopamine transporter (DAT) and tyrosin hydroxylase", "setting": "[7]", "value": "increased"}, {"measurement": "transcription of Sonic Hedgehog, Wnt 1, Wnt 5a, engrailed 1, Nurr 1 and Pitx 3", "setting": "[7]", "value": "activated"}, {"measurement": "caspase-3 enzyme activity", "setting": "caspase-3; after 24 hours", "value": "reduced"}, {"measurement": "caspase-3 enzyme activity", "setting": "caspase-3; after 48 hours", "value": "increased"}]}
